# Test results as given in paper doi:10.1101/2023.11.24.568596v1 (biorxiv, 2023).
# Legend:
# Conditions in all cases: binder
# Erk3 = Erk3 (Homo sapiens, UniProt Q16659)
# BRPF1 = target: T1, BRPF1 (Homo sapiens, UniProt P55201)
# T1 sequence (P55201 1-1214): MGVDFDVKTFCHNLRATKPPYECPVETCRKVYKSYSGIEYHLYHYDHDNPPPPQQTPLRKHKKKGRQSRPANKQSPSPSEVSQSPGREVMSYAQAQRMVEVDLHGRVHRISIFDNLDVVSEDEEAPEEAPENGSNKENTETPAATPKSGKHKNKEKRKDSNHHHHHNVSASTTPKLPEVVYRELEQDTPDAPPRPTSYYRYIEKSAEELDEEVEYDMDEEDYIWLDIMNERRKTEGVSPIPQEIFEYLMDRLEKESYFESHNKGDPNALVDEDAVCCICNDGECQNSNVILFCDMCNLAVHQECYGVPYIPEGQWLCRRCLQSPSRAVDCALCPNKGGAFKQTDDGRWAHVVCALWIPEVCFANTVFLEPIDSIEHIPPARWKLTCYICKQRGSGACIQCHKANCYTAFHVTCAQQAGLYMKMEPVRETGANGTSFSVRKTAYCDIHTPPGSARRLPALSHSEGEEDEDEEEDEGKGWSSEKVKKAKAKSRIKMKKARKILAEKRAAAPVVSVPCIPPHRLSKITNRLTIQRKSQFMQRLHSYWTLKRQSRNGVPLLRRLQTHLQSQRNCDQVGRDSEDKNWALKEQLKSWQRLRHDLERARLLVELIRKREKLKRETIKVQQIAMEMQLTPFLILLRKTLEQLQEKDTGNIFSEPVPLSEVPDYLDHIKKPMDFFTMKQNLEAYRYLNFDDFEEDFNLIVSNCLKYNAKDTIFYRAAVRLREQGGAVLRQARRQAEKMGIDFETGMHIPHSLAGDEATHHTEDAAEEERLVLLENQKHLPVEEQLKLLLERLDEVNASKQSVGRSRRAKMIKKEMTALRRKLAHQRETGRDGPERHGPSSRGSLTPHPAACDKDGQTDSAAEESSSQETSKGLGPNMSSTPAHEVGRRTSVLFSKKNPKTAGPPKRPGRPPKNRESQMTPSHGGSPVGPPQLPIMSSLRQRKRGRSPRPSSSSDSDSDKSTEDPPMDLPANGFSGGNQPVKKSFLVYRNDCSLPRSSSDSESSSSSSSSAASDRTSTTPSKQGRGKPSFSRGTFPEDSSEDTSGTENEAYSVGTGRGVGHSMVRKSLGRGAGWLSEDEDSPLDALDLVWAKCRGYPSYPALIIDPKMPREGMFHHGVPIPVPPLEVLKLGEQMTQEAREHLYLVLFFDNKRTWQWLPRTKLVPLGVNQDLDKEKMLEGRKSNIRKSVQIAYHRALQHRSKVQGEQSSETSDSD
# HIPK2 = HIPK2 (Homo sapiens, UniProt Q9H2X6)
# NQO2A = target: T2, NQO2A (Homo sapiens, UniProt P16083)
# T2 sequence (P16083 1-231): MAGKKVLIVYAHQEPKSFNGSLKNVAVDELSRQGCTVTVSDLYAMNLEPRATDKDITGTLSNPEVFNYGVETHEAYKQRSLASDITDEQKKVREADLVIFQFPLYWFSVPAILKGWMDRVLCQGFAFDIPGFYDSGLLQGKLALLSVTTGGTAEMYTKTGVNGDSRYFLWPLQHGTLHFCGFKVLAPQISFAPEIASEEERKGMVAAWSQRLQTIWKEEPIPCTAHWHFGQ
# FECH = target: T3, FECH (Homo sapiens, UniProt P22830)
# T3 sequence (P22830 1-423): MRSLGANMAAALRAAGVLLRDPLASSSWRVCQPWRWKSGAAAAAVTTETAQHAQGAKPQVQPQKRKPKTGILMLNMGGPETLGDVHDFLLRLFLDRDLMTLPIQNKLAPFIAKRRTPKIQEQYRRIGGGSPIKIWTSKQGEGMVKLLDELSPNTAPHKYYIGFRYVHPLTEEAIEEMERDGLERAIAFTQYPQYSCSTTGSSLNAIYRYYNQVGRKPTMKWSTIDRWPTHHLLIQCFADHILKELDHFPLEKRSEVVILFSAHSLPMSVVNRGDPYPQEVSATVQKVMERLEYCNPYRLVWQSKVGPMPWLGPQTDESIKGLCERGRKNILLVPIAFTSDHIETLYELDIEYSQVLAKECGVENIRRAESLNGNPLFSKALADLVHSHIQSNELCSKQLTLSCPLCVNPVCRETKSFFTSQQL
# MSSK1 = MSSK1 (Homo sapiens, UniProt Q9UPE1)
# Chain of MSSK1 (Q9UPE1 whole entry): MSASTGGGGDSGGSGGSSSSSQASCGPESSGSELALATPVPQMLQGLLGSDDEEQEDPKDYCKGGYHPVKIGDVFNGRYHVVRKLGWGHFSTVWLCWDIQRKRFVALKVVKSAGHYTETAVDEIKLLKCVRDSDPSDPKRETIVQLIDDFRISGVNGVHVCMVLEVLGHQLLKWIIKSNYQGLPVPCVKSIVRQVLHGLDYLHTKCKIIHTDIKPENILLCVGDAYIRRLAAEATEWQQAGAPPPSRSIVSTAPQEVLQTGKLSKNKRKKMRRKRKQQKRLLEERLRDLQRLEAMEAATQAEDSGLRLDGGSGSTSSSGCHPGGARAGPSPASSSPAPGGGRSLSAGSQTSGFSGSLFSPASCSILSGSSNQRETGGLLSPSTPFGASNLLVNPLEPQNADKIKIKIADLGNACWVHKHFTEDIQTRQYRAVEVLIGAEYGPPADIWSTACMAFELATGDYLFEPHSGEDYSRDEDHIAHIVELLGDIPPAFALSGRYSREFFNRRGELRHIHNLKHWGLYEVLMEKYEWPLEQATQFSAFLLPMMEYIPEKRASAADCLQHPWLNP
# Chain of HIPK2 (Q9H2X6 whole entry): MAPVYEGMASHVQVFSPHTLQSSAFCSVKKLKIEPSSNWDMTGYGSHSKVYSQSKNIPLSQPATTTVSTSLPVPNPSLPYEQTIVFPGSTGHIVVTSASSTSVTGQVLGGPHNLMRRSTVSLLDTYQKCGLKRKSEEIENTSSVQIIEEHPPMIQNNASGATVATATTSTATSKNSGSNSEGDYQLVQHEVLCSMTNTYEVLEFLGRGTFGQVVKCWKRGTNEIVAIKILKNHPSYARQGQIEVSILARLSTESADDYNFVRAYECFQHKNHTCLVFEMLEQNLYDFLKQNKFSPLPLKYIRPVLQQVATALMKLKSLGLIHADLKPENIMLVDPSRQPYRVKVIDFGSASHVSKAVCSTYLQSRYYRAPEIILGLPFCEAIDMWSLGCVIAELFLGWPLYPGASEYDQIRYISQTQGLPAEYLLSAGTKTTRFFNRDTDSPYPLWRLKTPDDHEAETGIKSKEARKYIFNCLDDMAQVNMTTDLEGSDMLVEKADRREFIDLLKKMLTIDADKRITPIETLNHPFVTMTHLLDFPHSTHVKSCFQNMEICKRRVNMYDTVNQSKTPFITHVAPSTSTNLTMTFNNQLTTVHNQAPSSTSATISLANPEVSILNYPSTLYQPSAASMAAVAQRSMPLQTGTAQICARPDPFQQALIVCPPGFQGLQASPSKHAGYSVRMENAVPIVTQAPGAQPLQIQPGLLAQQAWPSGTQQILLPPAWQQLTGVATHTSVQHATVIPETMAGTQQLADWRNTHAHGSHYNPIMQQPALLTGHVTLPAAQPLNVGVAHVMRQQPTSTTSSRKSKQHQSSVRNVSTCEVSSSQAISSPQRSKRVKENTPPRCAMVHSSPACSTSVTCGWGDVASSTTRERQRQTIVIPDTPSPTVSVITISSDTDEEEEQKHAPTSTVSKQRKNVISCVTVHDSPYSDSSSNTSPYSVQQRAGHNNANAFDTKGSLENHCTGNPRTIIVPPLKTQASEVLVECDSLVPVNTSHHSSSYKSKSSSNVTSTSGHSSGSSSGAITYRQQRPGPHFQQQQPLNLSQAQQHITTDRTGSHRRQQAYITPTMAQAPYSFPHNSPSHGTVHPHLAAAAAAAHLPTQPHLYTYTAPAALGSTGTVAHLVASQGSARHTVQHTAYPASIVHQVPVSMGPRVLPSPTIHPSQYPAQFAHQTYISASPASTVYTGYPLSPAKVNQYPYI
# Chain of Erk3 (Q16659 whole entry): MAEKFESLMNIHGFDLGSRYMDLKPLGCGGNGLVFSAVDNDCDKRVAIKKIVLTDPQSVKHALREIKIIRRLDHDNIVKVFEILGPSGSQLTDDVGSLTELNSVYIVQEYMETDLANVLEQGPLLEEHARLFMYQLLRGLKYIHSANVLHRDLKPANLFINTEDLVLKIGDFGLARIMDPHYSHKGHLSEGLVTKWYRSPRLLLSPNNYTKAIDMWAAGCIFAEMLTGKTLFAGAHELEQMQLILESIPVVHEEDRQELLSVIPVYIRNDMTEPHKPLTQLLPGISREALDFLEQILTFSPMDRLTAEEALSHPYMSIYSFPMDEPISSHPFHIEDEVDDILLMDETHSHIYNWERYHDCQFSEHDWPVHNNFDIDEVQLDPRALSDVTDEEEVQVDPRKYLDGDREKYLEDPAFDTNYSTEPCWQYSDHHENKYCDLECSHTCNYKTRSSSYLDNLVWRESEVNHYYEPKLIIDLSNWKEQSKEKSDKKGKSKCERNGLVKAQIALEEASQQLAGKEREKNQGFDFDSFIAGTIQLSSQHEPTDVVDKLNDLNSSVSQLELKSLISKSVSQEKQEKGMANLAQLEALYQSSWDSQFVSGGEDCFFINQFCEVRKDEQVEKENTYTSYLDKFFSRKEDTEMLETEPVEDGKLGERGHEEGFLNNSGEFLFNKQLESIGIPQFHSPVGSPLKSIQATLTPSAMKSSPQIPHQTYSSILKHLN
smiles,measurement,setting,value
"CNc1ncc2cc(-c3ccc(-c4cccc(C)n4)cc3Cl)c(=O)n(CCCCN)c2n1 [compound 20, MRLW5]",ΔTm MRLW5 (20),Erk3,0.5 °C
"CNc1ncc2cc(-c3ccc(-c4cccc(C)n4)cc3Cl)c(=O)n(CCC3CCNCC3)c2n1 [compound 22, 6-(2-Chloro-4-(6-methylpyridin-2-yl)phenyl)-2-(methylamino)-8-(2-(piperidin-4-yl)ethyl)pyrido[2,3-d]pyrimidin-7(8H)-one]",ΔTm 22,BRPF1,-0.4 °C
same,ΔTm 22,HIPK2,2.3 °C
same,ΔTm 22,NQO2A,-0.1 °C
same,ΔTm 22,FECH,-0.3 °C
same,ΔTm 22,MSSK1,-0.1 °C
"CNc1ncc2cc(-c3ccc(-c4cccc(C)n4)cc3Cl)c(=O)n(C[C@H]3CC[C@H](N)CC3)c2n1 [compound 23, 23]",ΔTm 23,BRPF1,-1.8 °C
same,ΔTm 23,HIPK2,2.1 °C
"Cc1cccc(-c2ccc(-c3cc4cnc(NC(CO)CO)nc4n(CCCCN)c3=O)c(Cl)c2)n1 [compound 24, 8-(4-Aminobutyl)-6-(2-chloro-4-(6-methylpyridin-2-yl)phenyl)-2-((1,3-dihydroxypropan-2-yl)amino)pyrido[2,3-d]pyrimidin-7(8H)-one]",ΔTm MR24 (24),BRPF1,-1.5 °C
same,ΔTm MR24 (24),HIPK2,0.4 °C
same,ΔTm MR24 (24),NQO2A,0.3 °C
same,ΔTm MR24 (24),FECH,-0.5 °C
same,ΔTm MR24 (24),MSSK1,-0.2 °C
same,ΔTm MR24 (24),Erk3,0.4 °C
"Cc1cccc(-c2ccc(-c3cc4cnc(NCCCc5ccc(N)cc5)nc4n(CCCCN)c3=O)c(Cl)c2)n1 [compound 25, 8-(4-Aminobutyl)-2-((3-(4-aminophenyl)propyl)amino)-6-(2-chloro-4-(6-methylpyridin-2-yl)phenyl)pyrido[2,3-d]pyrimidin-7(8H)-one]",ΔTm 25,BRPF1,-1.4 °C
same,ΔTm 25,HIPK2,0.8 °C
same,ΔTm 25,NQO2A,0.5 °C
same,ΔTm 25,FECH,3.0 °C
same,ΔTm 25,MSSK1,-0.4 °C
same,ΔTm 25,Erk3,1.0 °C
"Cc1cccc(-c2ccc(-c3cc4cnc(NCCCN5CCOCC5)nc4n(CCCCN)c3=O)c(Cl)c2)n1 [compound 26, MR26]",ΔTm MR26 (26),BRPF1,-1.0 °C
same,ΔTm MR26 (26),HIPK2,0.4 °C
same,ΔTm MR26 (26),NQO2A,0.1 °C
same,ΔTm MR26 (26),FECH,0.3 °C
same,ΔTm MR26 (26),MSSK1,-0.3 °C
same,ΔTm MR26 (26),Erk3,0.4 °C
